Measured values taken from ChEMBL document CHEMBL6078688, “Discovery of Novel MyD88 Inhibitor A5S to Alleviate Acute Lung Injury with Favorable Drug-like Properties” (J Med Chem, 2024).
Calls of active or inactive are those of the source. No cut-off for these calls is given here.

Experiments:
J774.A1 [1] = experiment: Cytotoxicity against mouse J774.A1 cells at 10 uM by MTT assay; assay type: toxicity, cell-based; settings: j774.a1, 10 µM
THP-1 = experiment: Anti-inflammatory activity in LPS-induced human THP-1 cells assessed as inhibition of IL-6 production at 10 uM by ELISA relative to control; assay type: functional
[2] = Drug concentration in Sprague-Dawley rat serum at 15 mg/kg,iv administration measured upto 24 hrs by LC-MS/MS analysis; assay type: ADME, organism-based; settings: read-out: Ct
[3] = Stability of compound in enzyme free simulated intestinal fluid measured upto 12 hrs; assay type: physicochemical; settings: simulated gi fluid
[4] = Stability of compound in simulated gastric fluid measured upto 12 hrs; assay type: physicochemical; settings: simulated gi fluid
[5] = AUC (0 to t) in Sprague-Dawley rat at 1 mg/kg,iv administration measured upto 24 hrs by LC-MS/MS analysis; assay type: ADME, organism-based; settings: in vivo
[6] = Tmax in Sprague-Dawley rat at 50 mg/kg,po administration measured upto 24 hrs by LC-MS/MS analysis; assay type: ADME, organism-based; settings: in vivo
[7] = AUC (0 to t) in Sprague-Dawley rat at 50 mg/kg,po administration measured upto 24 hrs by LC-MS/MS analysis; assay type: ADME, organism-based; settings: in vivo
[8] = Stability of compound in rat serum measured after 6 hrs; assay type: ADME, cell-free
[9] = Stability of compound in simulated intestinal fluid measured upto 12 hrs; assay type: physicochemical; settings: simulated gi fluid
[10] = AUC (0 to infinity) in Sprague-Dawley rat at 1 mg/kg,iv administration measured upto 24 hrs by LC-MS/MS analysis; assay type: ADME, organism-based; settings: in vivo
[11] = Cmax in Sprague-Dawley rat at 50 mg/kg,po administration measured upto 24 hrs by LC-MS/MS analysis; assay type: ADME, organism-based; settings: in vivo
[12] = Tmax in Sprague-Dawley rat at 1 mg/kg,iv administration measured upto 24 hrs by LC-MS/MS analysis; assay type: ADME, organism-based; settings: in vivo
[13] = Half life in Sprague-Dawley rat at 1 mg/kg,iv administration measured upto 24 hrs by LC-MS/MS analysis; assay type: ADME, organism-based; settings: in vivo
[14] = Oral bioavailability in Sprague-Dawley rat at 50 mg/kg administration measured upto 24 hrs by LC-MS/MS analysis; assay type: ADME, organism-based; settings: in vivo
[15] = Stability of compound in enzyme free simulated gastric fluid measured upto 12 hrs; assay type: physicochemical; settings: simulated gi fluid
[16] = Cmax in Sprague-Dawley rat at 1 mg/kg,iv administration measured upto 24 hrs by LC-MS/MS analysis; assay type: ADME, organism-based; settings: in vivo
Peritoneal macrophage = experiment: Antiinflammatory activity in LPS-induced mouse Peritoneal macrophage cells assessed as inhibition of IFN-beta mRNA level at 1.25 to 5 uM by RT-PCR analysis; assay type: functional, cell-based; settings: dose 1.25-5 µM
[17] = biological target: Myeloid differentiation primary response protein MyD88 (Homo sapiens, UniProt Q99836); experiment: Binding affinity to MYD88 (unknown origin) assessed as dissociation constant by biolayer interferometry
Sequence of Myeloid differentiation primary response protein MyD88 (Q99836 whole entry): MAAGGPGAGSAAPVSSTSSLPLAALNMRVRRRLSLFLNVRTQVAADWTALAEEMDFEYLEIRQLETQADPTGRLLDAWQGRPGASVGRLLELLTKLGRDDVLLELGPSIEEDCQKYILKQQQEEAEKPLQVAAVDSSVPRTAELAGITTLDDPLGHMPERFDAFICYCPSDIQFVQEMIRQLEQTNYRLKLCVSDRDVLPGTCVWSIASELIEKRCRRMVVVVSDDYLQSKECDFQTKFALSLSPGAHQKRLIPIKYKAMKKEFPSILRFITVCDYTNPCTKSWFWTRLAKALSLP

[18] = biological target: Toll-like receptor 4/Ly96 (Mus musculus) (UniProt Q9QUK6+Q9JHF9); experiment: Inhibition of MD2/TLR4 protein-protein interaction in LPS-induced mouse J774.A1 cells at 20 uM incubated for 2 hrs by coimmunoprecipitation analysis; assay type: cell-based
J774.A1 [19] = experiment: Anti-inflammatory activity in LPS-induced mouse J774.A1 cells assessed as inhibition of TNF-alpha production by ELISA; assay type: functional, cell-based
J774.A1 [20] = experiment: Anti-inflammatory activity in LPS-induced mouse J774.A1 cells assessed as inhibition of IL-6 production by ELISA; assay type: functional, cell-based
[21] = biological target: TLR4-MyD88 (Mus musculus) (UniProt Q9QUK6+P22366); experiment: Inhibition of MYD88/TLR4 protein-protein interaction in LPS-induced mouse J774.A1 cells at 20 uM incubated for 2 hrs by coimmunoprecipitation analysis; assay type: cell-based
Sequence of TLR4-MyD88 (Mus musculus) (P22366 whole entry, looked up): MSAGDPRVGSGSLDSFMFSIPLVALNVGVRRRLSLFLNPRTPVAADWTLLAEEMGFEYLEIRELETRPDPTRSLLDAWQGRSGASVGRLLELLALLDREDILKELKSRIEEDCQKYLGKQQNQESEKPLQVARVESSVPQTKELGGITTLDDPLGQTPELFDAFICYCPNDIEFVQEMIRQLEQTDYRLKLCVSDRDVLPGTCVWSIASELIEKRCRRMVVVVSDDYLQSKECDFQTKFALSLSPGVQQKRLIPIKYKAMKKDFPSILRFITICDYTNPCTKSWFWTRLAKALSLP
Sequence of TLR4-MyD88 (Mus musculus) (Q9QUK6 whole entry, looked up): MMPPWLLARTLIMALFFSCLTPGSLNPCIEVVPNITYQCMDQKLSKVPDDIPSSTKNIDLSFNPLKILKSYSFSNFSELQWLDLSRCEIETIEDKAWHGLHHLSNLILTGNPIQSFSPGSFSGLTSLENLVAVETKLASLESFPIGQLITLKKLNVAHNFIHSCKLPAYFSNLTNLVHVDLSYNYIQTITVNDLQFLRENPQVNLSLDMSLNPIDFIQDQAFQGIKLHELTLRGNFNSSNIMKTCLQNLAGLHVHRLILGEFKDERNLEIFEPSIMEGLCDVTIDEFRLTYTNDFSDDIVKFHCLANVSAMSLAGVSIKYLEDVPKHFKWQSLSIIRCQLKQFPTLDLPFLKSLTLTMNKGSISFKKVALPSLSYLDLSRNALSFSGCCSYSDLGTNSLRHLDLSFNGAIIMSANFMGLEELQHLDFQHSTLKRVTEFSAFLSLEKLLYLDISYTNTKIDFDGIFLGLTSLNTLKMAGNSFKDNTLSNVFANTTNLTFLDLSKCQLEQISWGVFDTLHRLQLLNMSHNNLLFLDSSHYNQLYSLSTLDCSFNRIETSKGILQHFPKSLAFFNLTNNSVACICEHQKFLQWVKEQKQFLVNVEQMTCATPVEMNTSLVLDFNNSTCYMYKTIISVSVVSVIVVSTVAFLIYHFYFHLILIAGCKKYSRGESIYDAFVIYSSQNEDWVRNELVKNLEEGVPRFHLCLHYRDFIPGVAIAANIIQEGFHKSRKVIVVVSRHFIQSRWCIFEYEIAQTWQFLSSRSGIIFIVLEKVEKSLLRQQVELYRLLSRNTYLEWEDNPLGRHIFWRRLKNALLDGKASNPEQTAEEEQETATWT

J774.A1 [22] = experiment: Inhibition of NF-kappaB signalling pathway in LPS-induced mouse J774.A1 cells assessed as downregulation of p65 phosphorylation by Western blotting analysis; assay type: cell-based
J774.A1 [23] = experiment: Inhibition of NF-kappaB signalling pathway in LPS-induced mouse J774.A1 cells assessed as upregulation of IkappaB-alpha expression by Western blotting analysis; assay type: cell-based
J774.A1 [24] = experiment: Cytotoxicity against mouse J774.A1 cells at 3 to 12 uM by MTT assay; assay type: toxicity, cell-based; settings: j774.a1, 12 µM, dose 3-12 µM
J774.A1 [25] = experiment: Anti-inflammatory activity in LPS-induced mouse J774.A1 cells assessed as inhibition of TNF-alpha production at 10 uM by ELISA; assay type: functional, cell-based
J774.A1 [26] = experiment: Anti-inflammatory activity in LPS-induced mouse J774.A1 cells assessed as inhibition of IL-6 production at 10 uM by ELISA; assay type: functional, cell-based
Mus musculus [27] = experiment: Antiinflammatory activity against LPS induced acute lung injury C57BL/6 mouse model assessed as reduction in of leukocytes in alveolar region at 20 mg/kg,po administrated with compound for 30 mins followed by LPS treatment and measured after 6 hrs by immunohistochemical staining based analysis; assay type: functional, organism-based
Mus musculus [28] = experiment: Antiinflammatory activity against LPS induced acute lung injury C57BL/6 mouse model assessed as reduction in histopathological change in lung at 20 mg/kg,po administrated with compound for 30 mins followed by LPS treatment and measured after 6 hrs by H and E staining based analysis; assay type: functional, organism-based; settings: time 6.5 hrs

Row | Structure (SMILES) | Activity (J774.A1 [1]) | inhibition at 10 µM (THP-1) [%] | further results
1 | OC(COc1ccc(F)cc1)CN1CCN(Cc2cc3ccccc3[nH]2)CC1 (stereo not given) | Non-toxic | 76.3 | –
2 | CC(c1ccccc1)C(O)CN1CCN(CC(O)COc2ccccc2)CC1 (stereo not given) | Non-toxic | 30.5 | –
3 | CC(c1ccccc1)C(O)CN1CCN(CC(O)COc2ccc(Cl)cc2)CC1 (stereo not given) | Non-toxic | 14 | –
4 | CC(c1cccc(F)c1)C(O)CN1CCN(CC(O)COc2ccc(Cl)cc2)CC1 (stereo not given) | Non-toxic | 55.5 | –
5 | CC(c1ccccc1)C(O)CN1CCN(CC(O)COc2ccc(Br)cc2)CC1 (stereo not given) | Non-toxic | 47.9 | –
6 | CC(c1cccc(F)c1)C(O)CN1CCN(CC(O)COCc2ccccc2)CC1 (stereo not given) | Non-toxic | 30.4 | –
7 | O=C(CCN1CCN(Cc2ccccc2)CC1)Nc1nc(-c2ccccc2)cs1 | – | – | concentration at 24 h [2]: 1190 ng/mL
8 | Cc1ccccc1OCC(O)CN1CCN(CC(O)C(C)c2cccc(F)c2)CC1 (stereo not given) | Non-toxic | 46.2 | –
9 | CC(c1cccc(F)c1)C(O)CN1CCN(CC(O)COc2ccc(F)cc2)CC1 (stereo not given) | Non-toxic | 42.1 | –
10 | OC(COc1ccc(Cl)cc1)CN1CCN(Cc2cc3ccccc3[nH]2)CC1 (stereo not given) | Non-toxic | 85.3 | –
11 | COc1ccc(-c2csc(NC(=O)CCN3CCN(Cc4cccc([N+](=O)[O-])c4)CC3)n2)cc1OC | – | – | Stability [3]: Stable; Stability [4]: Stable; AUC(0-t) at 24 h [5]: 79.1 ng·h/mL; Tmax [6]: 15 min; AUC(0-t) at 24 h [7]: 4.38 ng·h/mL; Stability [8]: Unstable; Stability [9]: Stable; AUC(0-inf) [10]: 79.9 ng·h/mL; Cmax [11]: 3.99 ng/mL; Tmax [12]: 4.8 min; half-life [13]: 4.8 min; bioavailability [14]: 0.13%; Stability [15]: Stable; Cmax [16]: 297 ng/mL
12 | CC(c1cccc(F)c1)C(O)CN1CCN(CC(O)COc2ccccc2)CC1 (stereo not given) | Non-toxic | 31.8 | –
13 | CC(c1ccccc1)C(O)CN1CCN(CC(O)COc2ccc(C(C)(C)C)cc2)CC1 (stereo not given) | Toxic | 46.4 | –
14 | CC(c1ccccc1)C(O)CN1CCN(CC(O)COCc2ccccc2)CC1 (stereo not given) | Non-toxic | 20 | –
15 | COc1ccc(OCC(O)CN2CCN(CC(O)C(C)c3ccccc3)CC2)cc1 (stereo not given) | Non-toxic | 46.8 | –
16 | COc1ccc(OCC(O)CN2CCN(Cc3cc4ccccc4[nH]3)CC2)cc1 (stereo not given) | Non-toxic | 69 | –
17 | COc1ccc(C(=O)/C=C/c2cccc(OC)c2OC)cc1 | – | – | Activity (Peritoneal macrophage): Active

Row | Structure (SMILES) | Activity (J774.A1 [1]) | inhibition at 10 µM (THP-1) [%] | further results
18 | CC(C)(C)c1ccc(OCC(O)CN2CCN(Cc3cc4ccccc4[nH]3)CC2)cc1 (stereo not given) | Toxic | 5.83 | –
19 | CC(c1cccc(F)c1)C(O)CN1CCN(CC(O)COc2ccc(Br)cc2)CC1 (stereo not given) | Non-toxic | 43.1 | –
20 | Cc1ccccc1OCC(O)CN1CCN(CC(O)C(C)c2ccccc2)CC1 (stereo not given) | Non-toxic | 21.5 | –
21 | CC(c1ccccc1)C(O)CN1CCN(CC(O)COc2ccc(F)cc2)CC1 (stereo not given) | Non-toxic | 4.5 | –
22 | OC(COc1ccc(Br)cc1)CN1CCN(Cc2cc3ccccc3[nH]2)CC1 (stereo not given) | Non-toxic | 84.2 | Kd [17]: 84.8 µM
23 | Cc1ccccc1OCC(O)CN1CCN(Cc2cc3ccccc3[nH]2)CC1 (stereo not given) | Non-toxic | 75.4 | –
24 | COc1ccccc1OCC(O)CN1CCN(Cc2cc3ccccc3[nH]2)CC1 (stereo not given) | Non-toxic | 62.6 | –
25 | COc1ccccc1OCC(O)CN1CCN(CC(O)C(C)c2cccc(F)c2)CC1 (stereo not given) | Non-toxic | 52.8 | –
26 | COc1ccccc1OCC(O)CN1CCN(CC(O)C(C)c2ccccc2)CC1 (stereo not given) | Non-toxic | 27.8 | –
27 | COc1ccc(OCC(O)CN2CCN(CC(O)C(C)c3cccc(F)c3)CC2)cc1 (stereo not given) | Non-toxic | 37.8 | –
28 | OC(COc1ccccc1)CN1CCN(Cc2cc3ccccc3[nH]2)CC1 (stereo not given) | Non-toxic | 74 | –
29 | CC(c1cccc(F)c1)C(O)CN1CCN(CC(O)COc2ccc(C(C)(C)C)cc2)CC1 (stereo not given) | Non-toxic | 44.3 | –
30 | OC(COCc1ccccc1)CN1CCN(Cc2cc3ccccc3[nH]2)CC1 (stereo not given) | Non-toxic | 72.7 | –
31 | O[C@@H](COc1ccc(Br)cc1)CN1CCN(Cc2cc3ccccc3[nH]2)CC1 | – | – | inhibition [18]: inactive; IC50 (J774.A1 [19]): 3.75 µM; IC50 (J774.A1 [20]): 0.82 µM; inhibition [21]: Active; inhibition (J774.A1 [22]): Active; inhibition (J774.A1 [23]): Active; Activity (J774.A1 [24]): Non-toxic
32 | Cc1c(CN2CCN(C3CCNC3)CC2)[nH]c2ccc(F)cc12 (stereo not given) | Non-toxic | 71.7 | inhibition (J774.A1 [25]): Active; inhibition (J774.A1 [26]): Active; Kd [17]: 276 µM
33 | C[C@@H]1C[C@H]2[C@@H]3CCC4=CC(=O)C=C[C@]4(C)[C@@]3(F)[C@@H](O)C[C@]2(C)[C@@]1(O)C(=O)CO | – | – | Activity (Mus musculus [27]): Active; Activity (Mus musculus [28]): Active
